{"source": "paper PMC8365602", "about": "(Journal of Medicinal Chemistry, 2021)", "key": {"[1]": {"test_system": "zymosan-induced murine peritonitis", "assay": "Zymosan-induced peritonitis in mice", "assay_type": "in vivo", "protocol": "Male CD-1 mice (33–39 g, 6–8 weeks, Charles River Laboratories; Calco, Italy) and female BALB/c mice (20 g, 8 weeks, Charles River Laboratories) were fed with standard rodent chow and water and acclimated for 4 days at a 12 h light and 12 h dark schedule in a constant air-conditioned environment (21 ± 2 °C). Mice were randomly assigned to groups, and experiments were carried out during the light phase.\nZymosan (2 mg/mL in saline, i.p., 0.5 mL, Sigma-Aldrich) was injected at 30 min (i.p.) or 60 min (p.o.) post compound administration. Mice were sacrificed by inhalation of CO2 after another 30 min to determine LTC4 levels, lipid mediator profiles, metabolites, and vascular permeability and after 4 h to analyze LTB4 levels and cell infiltration.[72] Plasma and peritoneal exudates were collected, and cells were counted in exudates after trypan blue staining. Vascular permeability was measured by injection of Evans blue dye (40 mg/kg in saline, 0.3 mL, Sigma-Aldrich) into the tail vain directly before peritonitis induction.[72] The exudate was centrifuged (3000g, 5 min), and the absorbance was measured at 610 nm (DU730 spectrophotometer, Beckman Coulter, Krefeld, Germany). Levels of LTB4 and cysteinyl-LTs (dominated by LTC4) were quantified in the exudate by ELISA (Enzo Life Sciences, Lörrach, Germany) according to the manufacturer’s instructions. Compound 27a, its metabolites, and lipid mediators were extracted and analyzed by UPLC-MS/MS."}, "[2]": {"test_system": "human macrophages (M1 subtype)", "assay": "Lipid mediator profile of M1 macrophages stimulated with pathogenic E. coli", "assay_type": "cell-based", "conditions": "1 μM", "protocol": "Macrophages were polarized to the M1 phenotype by stimulation with LPS (100 ng/mL, Sigma-Aldrich) and interferon (IFN)-γ (20 ng/mL, Peprotech, Hamburg, Germany) for 48 h.[23]\nMonocytes (1 × 10^6/mL), which were prestimulated with LPS (1 μg/mL) for 24 h to induce COX-2 expression, or M1 macrophages (2 × 10^6 cells/mL) were preincubated with the vehicle (0.1% DMSO), 27a, or 12a for 15 min. Arachidonic acid (20 μM) and A23187 (2.5 μM) were added to monocytes suspended in a monocyte medium (lacking FCS if indicated) to induce lipid mediator formation.[81]\nFatty acids and lipid mediators were extracted from macrophage supernatants or murine peritoneal exudates (1 mL) after addition of two aliquots of ice-cold methanol.[23]d8-5S-HETE, d4-LTB4, d5-lipoxin A4, d5-resolvin D2, d4-PGE2 (200 nM, each, Cayman Chemicals), and d8-arachidonic acid (10 μM, Cayman Chemicals) were added as internal standards. […] The columns were extensively washed with H2O and hexane before lipid mediators were eluted with methyl formate, evaporated to dryness, dissolved in methanol/H2O (50:50), and analyzed by UPLC-MS/MS.[23]\nTo quantify lipid mediators and fatty acids in macrophages, murine plasma, and murine peritoneal exudates, the mobile phase methanol/H2O (acidified with 0.01% acetic acid) was ramped from 42:58 to 86:14 over 12.5 min, followed by isocratic elution with methanol/H2O (98:2) for 3 min. […]"}, "15-LOX": {"test_system": "15-LOX", "assay": "15-LOX product formation in activated PMNL", "assay_type": "cell-based, human", "description": "Freshly isolated PMNL (5 × 10^6) suspended in PBS pH 7.4 with 1 mg/mL glucose or freshly withdrawn human whole blood were preincubated with the test compounds for 10 min (or as indicated) at 37 °C. […] The reaction was stopped with an equal volume of methanol."}, "5-LOX [3]": {"target": "T1, 5-LOX (Homo sapiens, UniProt P09917)", "T1 sequence (P09917 1-674)": "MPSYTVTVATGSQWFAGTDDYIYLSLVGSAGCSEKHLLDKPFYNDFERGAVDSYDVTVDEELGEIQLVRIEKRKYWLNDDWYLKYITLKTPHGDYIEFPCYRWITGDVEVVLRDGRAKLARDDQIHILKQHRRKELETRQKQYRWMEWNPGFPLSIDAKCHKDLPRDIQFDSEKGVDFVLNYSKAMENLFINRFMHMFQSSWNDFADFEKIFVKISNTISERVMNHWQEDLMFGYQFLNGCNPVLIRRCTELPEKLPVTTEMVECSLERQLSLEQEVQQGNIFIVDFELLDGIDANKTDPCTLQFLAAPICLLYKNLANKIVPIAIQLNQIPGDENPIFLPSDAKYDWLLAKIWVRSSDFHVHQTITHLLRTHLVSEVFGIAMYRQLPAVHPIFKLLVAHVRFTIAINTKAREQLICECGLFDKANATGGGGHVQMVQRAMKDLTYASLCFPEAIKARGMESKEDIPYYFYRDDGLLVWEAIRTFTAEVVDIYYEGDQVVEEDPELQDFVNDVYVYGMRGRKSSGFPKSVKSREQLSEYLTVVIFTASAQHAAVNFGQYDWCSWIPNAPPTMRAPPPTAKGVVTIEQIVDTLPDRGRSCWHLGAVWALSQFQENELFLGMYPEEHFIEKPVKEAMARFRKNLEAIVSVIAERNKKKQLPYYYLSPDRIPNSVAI", "assay": "Cell-free 5-LOX activity (isolated human recombinant enzyme)", "description": "Human recombinant 5-LOX was expressed in E. coli Bl21 (DE3) cells that were transformed with pT3–5LOX (wt 5-LOX), 5-LOX_3W (triple mutation of Trp102Ala/Trp13Ala/Trp75Ala), or 5-LOX_R (single mutant of the Arg101Asp plasmid) and purified on an ATP-agarose column (Econo-Pac, Bio-Rad, Hercules, CA) by affinity chromatography.[6],[75]\nPurified 5-LOX (0.5 μg in PBS pH 7.4 containing 1 mM EDTA and 1 mM ATP) was preincubated with the vehicle (DMSO) or test compounds for 10 min and prewarmed at 37 °C."}, "5-LOX [4]": {"target": "T1, 5-LOX", "assay": "5-LOX product formation in activated PMNL;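 note: freshly isolated human PMNL in PBS pH 7.4 plus glucose, preincubated 10 min at 37 °C with compound, 5-LOX products (all-trans LTB4 isomers, 5-HETE) quantified by RP-HPLC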"}, "PBMC": {"test_system": "PBMC", "assay": "PBMC viability (MTT, mitochondrial dehydrogenase activity)", "assay_type": "cell-based, human", "conditions": "≤1 μM, 24 h", "protocol": "To measure mitochondrial dehydrogenase activity, 3-(4,5-dimethylthiazol-2-yl)-2,5-diphenyltetrazolium bromide (MTT) (20 μL, 5 mg/mL, Sigma-Aldrich) was added to PBMC. After 4 h in the darkness, the formed formazan product was solubilized (10% SDS in 20 mM HCl) and the absorbance was read at 570 nm using a Multiskan Spectrum microplate reader (Thermo Fisher Scientific).[81]"}, "[5]": {"conditions": "10 mg/kg i.p., 30 min post zymosan"}, "[6]": {"conditions": "10 mg/kg i.p., 4 h post zymosan"}}, "data": [{"smiles": "C/C(=C\\CC/C(C)=C/CC[C@]1(C)CCc2c(C)c(O)c(C)c(C)c2O1)CCC=C(CO)CO", "note": "[Compound 27a, α-amplexichromanol]", "values": [{"measurement": "Cysteinyl-LTs in the exudate", "setting": "[1]; 3 mg/kg p.o., 30 min post zymosan", "result": "decreased to a basal level"}, {"measurement": "LTC4 levels in the exudate", "setting": "[1]; [5]", "result": "strongly decreased LTC4 levels in the exudate"}, {"measurement": "Vascular permeability", "setting": "[1]; [5]", "result": "reduced vascular permeability"}, {"measurement": "Influx of cells into the peritoneal cavity", "setting": "[1]; [6]", "result": "accordingly reduced"}, {"measurement": "LTB4 levels in the exudate", "setting": "[1]; [6]", "result": "substantially lowered LTB4 levels"}, {"measurement": "Resolvin E3 levels in the exudate", "setting": "[1]; 10 mg/kg p.o., 30 min post zymosan injection, individual mice", "result": "moderately increased"}, {"measurement": "Biosynthesis of 5-LOX-derived products in M1 macrophages", "setting": "[2]", "result": "preferentially suppressed the biosynthesis of 5-LOX-derived products"}, {"measurement": "PGE2 levels in M1 macrophages", "setting": "[2]", "result": "slightly increased"}, {"measurement": "15-LOX inhibition", "setting": "15-LOX; activated human PMNL", "result": "not substantially inhibited"}, {"measurement": "15-LOX product formation", "setting": "15-LOX; submicromolar concentrations", "result": "increased by a trend"}, {"measurement": "Effect of Triton X-100 on 5-LOX inhibition", "setting": "5-LOX [3]; Triton X-100 (0.01%)", "result": "did not substantially impair 5-LOX inhibition"}, {"measurement": "Dependence of 5-LOX inhibition on substrate (arachidonic acid) concentration", "setting": "5-LOX [3]; human recombinant 5-LOX", "result": "independent of the substrate concentration"}, {"measurement": "Reversibility of 5-LOX inhibition", "setting": "5-LOX [3]; preincubation 15 min, 10-fold dilution", "result": "reversible"}, {"measurement": "IC50", "setting": "5-LOX [3]; read-out: 5-LOX enzyme IC50, isolated human 5-LOX, cell-free, mean ± SEM", "result": "110 ± 30", "unit": "nM"}, {"measurement": "remaining activity at 1 µM", "setting": "5-LOX [3]; read-out: 5-LOX enzyme residual activity at 1 μM", "result": 0.1, "unit": "%"}, {"measurement": "remaining activity at 3 µM", "setting": "5-LOX [4]; PMNL, read-out: 5-LOX PMNL residual activity at 3 μM", "result": "0.5 ± 0.1", "unit": "%"}, {"measurement": "IC50", "setting": "5-LOX [4]; read-out: 5-LOX PMNL IC50, 5-LOX product formation in activated PMNL, mean ± SEM", "result": "40 ± 10", "unit": "nM"}, {"measurement": "IC50", "setting": "5-LOX [4]; read-out: IC50, 5-LOX product formation in PMNL, A23187", "result": 50, "unit": "nM"}, {"measurement": "Mitochondrial dehydrogenase activity in PBMC (cell viability)", "setting": "PBMC", "result": "impaired neither mitochondrial dehydrogenase activity"}]}]}
